Assay [1] addresses Wee1-like protein kinase (Homo sapiens) (UniProt P30291). In words: Selectivity interaction (KinomeScan (DiscoverX)) EUB0000595a WEE1. The settings on record: at 10 µM.
The target of assay [2] is Mitogen-activated protein kinase kinase kinase 1 (Homo sapiens, UniProt Q13233). In words: Selectivity interaction (KinomeScan (DiscoverX)) EUB0000666a MAP3K1. The settings on record: at 10 µM.
Assay [3] concerns the target Serine/threonine-protein kinase PAK 3 (Homo sapiens) (UniProt O75914). Briefly: Selectivity interaction (SelectScreen profiling (Invitrogen)) EUB0000607a PAK3. The settings on record: at 2 µM.
In assay [4] the target is Tyrosine-protein kinase Fer (Homo sapiens) (UniProt P16591). Briefly: Selectivity interaction (ActivX KiNativ screen (kinase selectivity in THP-1 cell lysates)) EUB0000639a FER. The class given is subcellular. The settings on record: lysate, at 0.2 µM.
Assay [5] deals with Dual specificity mitogen-activated protein kinase kinase 1 (Homo sapiens, UniProt Q02750). In words: Selectivity interaction (ActivX KiNativ screen (kinase selectivity in THP-1 cell lysates)) EUB0000639a MAP2K1. The settings on record: lysate, at 0.01 µM. It is filed as subcellular.
In assay [6] the target is T1, Protein arginine N-methyltransferase 9 (Homo sapiens, UniProt Q6P2P2).
T1 sequence (Q6P2P2 whole entry): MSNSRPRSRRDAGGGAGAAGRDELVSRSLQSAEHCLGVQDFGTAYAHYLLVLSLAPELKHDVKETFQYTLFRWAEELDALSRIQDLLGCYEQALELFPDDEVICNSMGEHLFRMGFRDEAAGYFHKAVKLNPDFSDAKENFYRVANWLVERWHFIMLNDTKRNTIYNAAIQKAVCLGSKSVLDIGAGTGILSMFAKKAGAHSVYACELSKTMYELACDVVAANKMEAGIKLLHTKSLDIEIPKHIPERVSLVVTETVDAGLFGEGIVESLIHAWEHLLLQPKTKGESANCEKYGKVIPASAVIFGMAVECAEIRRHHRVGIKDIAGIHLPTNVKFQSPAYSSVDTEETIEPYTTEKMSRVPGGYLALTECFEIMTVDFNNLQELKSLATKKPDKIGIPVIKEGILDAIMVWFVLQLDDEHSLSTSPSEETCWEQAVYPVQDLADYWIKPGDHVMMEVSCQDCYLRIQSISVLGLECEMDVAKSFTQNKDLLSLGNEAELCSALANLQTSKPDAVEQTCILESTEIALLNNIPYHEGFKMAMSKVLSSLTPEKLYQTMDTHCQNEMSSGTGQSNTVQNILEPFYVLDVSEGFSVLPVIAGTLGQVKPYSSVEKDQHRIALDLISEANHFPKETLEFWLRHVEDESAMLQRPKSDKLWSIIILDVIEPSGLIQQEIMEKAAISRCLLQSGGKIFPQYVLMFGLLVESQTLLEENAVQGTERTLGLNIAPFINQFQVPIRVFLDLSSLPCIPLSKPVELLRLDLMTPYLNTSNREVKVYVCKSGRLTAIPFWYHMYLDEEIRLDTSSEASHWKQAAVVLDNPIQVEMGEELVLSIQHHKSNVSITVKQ
Briefly: Selectivity interaction (Scintillation proximity assays) EUB0000230b PRMT9. Background: Scintillation proximity formats need no separation of bound from free tracer.

For assay [7], the target named is T2, Dual specificity tyrosine-phosphorylation-regulated kinase 2 (Homo sapiens) (UniProt Q92630).
T2 sequence (whole entry): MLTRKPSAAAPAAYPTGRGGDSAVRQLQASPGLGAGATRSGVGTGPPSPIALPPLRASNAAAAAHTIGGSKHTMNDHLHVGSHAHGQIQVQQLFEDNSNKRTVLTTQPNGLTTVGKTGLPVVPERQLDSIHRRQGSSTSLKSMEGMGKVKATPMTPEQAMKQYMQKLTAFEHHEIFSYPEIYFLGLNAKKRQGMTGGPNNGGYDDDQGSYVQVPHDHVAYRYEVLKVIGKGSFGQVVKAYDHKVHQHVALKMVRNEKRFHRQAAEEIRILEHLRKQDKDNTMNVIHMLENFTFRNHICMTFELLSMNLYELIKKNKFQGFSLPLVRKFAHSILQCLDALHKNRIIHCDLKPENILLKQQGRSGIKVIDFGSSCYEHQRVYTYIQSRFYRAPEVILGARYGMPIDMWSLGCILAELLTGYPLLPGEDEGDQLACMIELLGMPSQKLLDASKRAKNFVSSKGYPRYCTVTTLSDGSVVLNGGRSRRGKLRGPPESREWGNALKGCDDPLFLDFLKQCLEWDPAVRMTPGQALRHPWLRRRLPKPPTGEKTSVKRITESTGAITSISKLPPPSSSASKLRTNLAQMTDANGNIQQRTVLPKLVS
Briefly: Selectivity interaction (KinomeScan (DiscoverX)) EUB0000045b DYRK2.

Assay [8] deals with T3, Membrane-associated tyrosine- and threonine-specific cdc2-inhibitory kinase (Homo sapiens) (UniProt Q99640).
T3 sequence (whole entry): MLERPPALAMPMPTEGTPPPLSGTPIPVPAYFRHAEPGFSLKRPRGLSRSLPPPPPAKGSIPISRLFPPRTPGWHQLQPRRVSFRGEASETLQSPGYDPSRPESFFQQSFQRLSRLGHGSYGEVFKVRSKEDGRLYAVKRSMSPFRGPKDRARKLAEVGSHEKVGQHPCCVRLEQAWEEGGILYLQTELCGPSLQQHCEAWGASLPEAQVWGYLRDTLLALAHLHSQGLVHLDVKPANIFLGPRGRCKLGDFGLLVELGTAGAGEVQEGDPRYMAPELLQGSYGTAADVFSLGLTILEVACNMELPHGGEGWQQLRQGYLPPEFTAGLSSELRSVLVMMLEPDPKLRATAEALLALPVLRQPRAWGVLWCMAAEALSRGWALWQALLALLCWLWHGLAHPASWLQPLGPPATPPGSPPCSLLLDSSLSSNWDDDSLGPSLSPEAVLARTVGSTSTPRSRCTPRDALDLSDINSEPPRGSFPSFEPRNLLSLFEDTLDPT
Briefly: Selectivity interaction (KinomeScan (DiscoverX)) EUB0001049a PKMYT1. The settings on record: at 1 µM.

In assay [9] the target is Casein kinase I isoform delta (Homo sapiens, UniProt P48730). In words: Selectivity interaction (KinomeScan (DiscoverX)) EUB0001079a CSNK1D. Particulars: at 1 µM.
The target of assay [10] is Tyrosine-protein kinase JAK2 (Homo sapiens, UniProt O60674). In words: Selectivity interaction (KinomeScan (DiscoverX)) EUB0000229b JAK2. Particulars: at 10 µM.
Sequence of Tyrosine-protein kinase JAK2 (O60674 whole entry): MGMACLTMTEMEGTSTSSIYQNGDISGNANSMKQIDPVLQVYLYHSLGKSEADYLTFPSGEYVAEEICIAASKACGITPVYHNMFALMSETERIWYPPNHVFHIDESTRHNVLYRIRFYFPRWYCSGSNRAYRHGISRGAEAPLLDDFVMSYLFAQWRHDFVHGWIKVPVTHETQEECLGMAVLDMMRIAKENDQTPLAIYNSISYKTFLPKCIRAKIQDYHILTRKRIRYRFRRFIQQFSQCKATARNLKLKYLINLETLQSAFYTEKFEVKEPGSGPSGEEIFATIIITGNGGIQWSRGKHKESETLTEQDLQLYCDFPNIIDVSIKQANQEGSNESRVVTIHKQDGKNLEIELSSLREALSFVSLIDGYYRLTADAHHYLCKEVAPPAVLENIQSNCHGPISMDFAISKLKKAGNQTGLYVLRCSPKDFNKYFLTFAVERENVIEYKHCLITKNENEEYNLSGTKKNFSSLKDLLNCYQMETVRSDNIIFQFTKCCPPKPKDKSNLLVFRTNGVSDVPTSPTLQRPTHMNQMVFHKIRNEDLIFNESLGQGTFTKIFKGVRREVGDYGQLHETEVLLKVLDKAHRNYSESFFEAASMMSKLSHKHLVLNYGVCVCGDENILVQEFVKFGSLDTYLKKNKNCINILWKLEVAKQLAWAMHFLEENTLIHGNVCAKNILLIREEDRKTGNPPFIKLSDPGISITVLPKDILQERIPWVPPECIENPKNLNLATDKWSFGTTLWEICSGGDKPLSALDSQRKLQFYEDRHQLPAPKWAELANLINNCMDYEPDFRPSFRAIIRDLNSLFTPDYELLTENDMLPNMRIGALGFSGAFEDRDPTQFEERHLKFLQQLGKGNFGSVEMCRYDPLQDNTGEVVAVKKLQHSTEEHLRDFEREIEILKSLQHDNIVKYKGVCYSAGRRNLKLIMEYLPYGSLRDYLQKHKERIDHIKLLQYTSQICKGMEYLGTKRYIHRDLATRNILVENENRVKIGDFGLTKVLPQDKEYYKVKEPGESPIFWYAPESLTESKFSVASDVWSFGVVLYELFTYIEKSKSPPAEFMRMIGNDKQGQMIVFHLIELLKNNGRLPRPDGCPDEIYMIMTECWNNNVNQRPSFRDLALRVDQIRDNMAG

Sequence of Wee1-like protein kinase (Homo sapiens) (P30291 whole entry, looked up): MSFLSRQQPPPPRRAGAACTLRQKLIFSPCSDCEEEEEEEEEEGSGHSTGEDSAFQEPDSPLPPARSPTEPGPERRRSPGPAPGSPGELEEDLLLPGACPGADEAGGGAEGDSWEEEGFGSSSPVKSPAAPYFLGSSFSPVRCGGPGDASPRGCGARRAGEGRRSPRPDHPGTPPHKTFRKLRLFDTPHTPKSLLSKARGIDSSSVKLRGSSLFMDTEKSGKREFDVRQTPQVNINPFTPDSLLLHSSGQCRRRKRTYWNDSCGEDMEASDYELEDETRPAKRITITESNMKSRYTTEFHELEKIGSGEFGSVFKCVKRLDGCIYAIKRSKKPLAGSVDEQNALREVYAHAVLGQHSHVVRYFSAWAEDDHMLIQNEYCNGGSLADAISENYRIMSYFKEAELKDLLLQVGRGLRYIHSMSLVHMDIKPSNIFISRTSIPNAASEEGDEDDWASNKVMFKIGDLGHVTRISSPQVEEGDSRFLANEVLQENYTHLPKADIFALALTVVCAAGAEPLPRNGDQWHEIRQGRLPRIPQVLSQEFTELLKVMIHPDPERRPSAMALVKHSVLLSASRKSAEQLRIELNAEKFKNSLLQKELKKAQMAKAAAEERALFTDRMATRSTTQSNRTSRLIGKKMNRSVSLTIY
Sequence of Dual specificity mitogen-activated protein kinase kinase 1 (Q02750 whole entry): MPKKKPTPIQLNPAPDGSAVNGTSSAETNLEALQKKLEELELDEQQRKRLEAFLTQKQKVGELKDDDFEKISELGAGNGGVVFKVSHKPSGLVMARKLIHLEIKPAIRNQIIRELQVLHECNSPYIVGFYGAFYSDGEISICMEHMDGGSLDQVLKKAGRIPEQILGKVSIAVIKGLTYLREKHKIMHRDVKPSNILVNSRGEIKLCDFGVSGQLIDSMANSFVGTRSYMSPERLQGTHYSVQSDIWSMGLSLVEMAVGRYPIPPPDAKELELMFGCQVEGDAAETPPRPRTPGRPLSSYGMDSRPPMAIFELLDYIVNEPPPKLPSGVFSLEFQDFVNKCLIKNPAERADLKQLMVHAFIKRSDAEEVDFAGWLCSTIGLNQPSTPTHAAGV
Sequence of Tyrosine-protein kinase Fer (Homo sapiens) (P16591 whole entry, looked up): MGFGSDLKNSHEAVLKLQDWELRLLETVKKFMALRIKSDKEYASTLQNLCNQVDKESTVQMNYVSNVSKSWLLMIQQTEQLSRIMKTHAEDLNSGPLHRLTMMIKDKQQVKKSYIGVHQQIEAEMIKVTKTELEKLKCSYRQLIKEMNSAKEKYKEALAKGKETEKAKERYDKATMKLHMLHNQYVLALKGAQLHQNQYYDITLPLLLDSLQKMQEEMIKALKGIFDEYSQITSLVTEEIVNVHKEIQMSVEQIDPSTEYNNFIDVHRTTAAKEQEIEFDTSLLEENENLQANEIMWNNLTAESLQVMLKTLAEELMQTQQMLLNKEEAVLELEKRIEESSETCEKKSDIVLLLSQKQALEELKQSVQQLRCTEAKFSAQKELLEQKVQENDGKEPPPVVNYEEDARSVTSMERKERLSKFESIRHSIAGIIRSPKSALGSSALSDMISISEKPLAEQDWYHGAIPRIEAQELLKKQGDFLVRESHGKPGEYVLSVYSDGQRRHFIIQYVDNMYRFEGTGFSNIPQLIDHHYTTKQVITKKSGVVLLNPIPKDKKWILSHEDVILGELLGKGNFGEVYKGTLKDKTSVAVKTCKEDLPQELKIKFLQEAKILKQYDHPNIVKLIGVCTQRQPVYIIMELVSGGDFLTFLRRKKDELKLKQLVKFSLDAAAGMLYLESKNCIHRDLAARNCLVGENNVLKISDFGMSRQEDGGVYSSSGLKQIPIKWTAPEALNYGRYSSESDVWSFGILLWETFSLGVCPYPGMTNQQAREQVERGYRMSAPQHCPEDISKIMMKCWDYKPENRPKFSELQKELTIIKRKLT
Sequence of Mitogen-activated protein kinase kinase kinase 1 (Q13233 whole entry): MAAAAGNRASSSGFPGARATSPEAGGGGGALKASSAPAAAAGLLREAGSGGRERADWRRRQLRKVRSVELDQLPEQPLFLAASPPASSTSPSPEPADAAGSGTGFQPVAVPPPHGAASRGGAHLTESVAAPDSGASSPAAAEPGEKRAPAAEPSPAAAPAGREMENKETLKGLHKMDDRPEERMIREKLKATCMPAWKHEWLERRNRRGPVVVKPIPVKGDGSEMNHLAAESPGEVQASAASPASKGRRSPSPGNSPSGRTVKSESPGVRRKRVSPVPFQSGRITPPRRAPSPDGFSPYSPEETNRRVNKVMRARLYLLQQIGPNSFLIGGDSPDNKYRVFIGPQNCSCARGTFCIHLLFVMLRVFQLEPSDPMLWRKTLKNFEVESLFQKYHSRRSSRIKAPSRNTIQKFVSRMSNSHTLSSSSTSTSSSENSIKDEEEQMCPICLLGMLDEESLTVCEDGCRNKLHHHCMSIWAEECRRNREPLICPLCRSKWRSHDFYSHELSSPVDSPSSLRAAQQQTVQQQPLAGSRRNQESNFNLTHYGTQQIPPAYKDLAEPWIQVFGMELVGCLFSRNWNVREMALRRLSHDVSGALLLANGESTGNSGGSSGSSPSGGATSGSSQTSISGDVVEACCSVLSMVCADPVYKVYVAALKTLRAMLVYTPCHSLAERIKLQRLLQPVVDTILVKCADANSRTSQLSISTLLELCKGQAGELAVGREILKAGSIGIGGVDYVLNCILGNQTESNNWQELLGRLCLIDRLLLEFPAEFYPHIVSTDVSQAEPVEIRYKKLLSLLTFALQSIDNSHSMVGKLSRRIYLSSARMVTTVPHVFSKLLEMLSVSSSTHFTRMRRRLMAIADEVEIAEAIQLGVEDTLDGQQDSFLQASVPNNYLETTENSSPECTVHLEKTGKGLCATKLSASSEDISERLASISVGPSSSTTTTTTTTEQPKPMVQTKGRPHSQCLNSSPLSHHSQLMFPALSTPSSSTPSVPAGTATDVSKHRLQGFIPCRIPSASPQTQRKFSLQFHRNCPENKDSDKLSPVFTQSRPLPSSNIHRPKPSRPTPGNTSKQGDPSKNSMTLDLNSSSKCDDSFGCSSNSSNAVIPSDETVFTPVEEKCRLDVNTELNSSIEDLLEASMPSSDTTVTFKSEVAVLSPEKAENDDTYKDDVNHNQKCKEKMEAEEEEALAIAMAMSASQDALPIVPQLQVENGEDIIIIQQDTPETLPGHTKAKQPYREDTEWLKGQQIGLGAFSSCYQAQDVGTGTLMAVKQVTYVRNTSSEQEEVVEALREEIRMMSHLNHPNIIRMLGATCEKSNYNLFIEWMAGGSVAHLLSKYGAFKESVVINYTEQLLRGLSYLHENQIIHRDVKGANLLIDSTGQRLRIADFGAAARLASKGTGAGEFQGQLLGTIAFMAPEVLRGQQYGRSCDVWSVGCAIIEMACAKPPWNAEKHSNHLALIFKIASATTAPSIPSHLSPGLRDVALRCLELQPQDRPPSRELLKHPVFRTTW
Sequence of Casein kinase I isoform delta (P48730 whole entry, looked up, canonical isoform): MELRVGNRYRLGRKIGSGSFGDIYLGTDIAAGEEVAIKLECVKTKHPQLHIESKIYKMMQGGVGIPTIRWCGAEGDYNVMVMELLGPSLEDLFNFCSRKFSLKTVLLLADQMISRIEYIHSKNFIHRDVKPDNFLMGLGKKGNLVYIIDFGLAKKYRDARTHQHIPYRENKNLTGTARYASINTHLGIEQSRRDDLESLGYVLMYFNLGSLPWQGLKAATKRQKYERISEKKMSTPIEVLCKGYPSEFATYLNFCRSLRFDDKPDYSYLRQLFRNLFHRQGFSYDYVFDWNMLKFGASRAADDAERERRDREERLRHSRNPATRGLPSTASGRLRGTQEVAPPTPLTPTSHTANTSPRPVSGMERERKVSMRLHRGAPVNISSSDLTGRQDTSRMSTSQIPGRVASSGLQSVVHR

`COCC(=O)NC/C=C/c1ccc2ncnc(Nc3ccc(Oc4ccc(C)nc4)c(C)c3)c2c1` [CP-724714] returned a % of control in assay [1] of 100%.

As to `O=C(NOC[C@H](O)CO)c1ccc(F)c(F)c1Nc1ccc(I)cc1F`, in assay [2], the % of control came to 54%.

Take `CNC(=O)Nc1ccc(-c2nc(N3CC4CCC(C3)O4)c3cnn(C4CCC5(CC4)OCCO5)c3n2)cc1`: in assay [3], the % of inhibition is 1%.

With `CC[C@@H]1[C@H](F)C(=O)N[C@@H]1COc1nccc2cc(C(N)=O)c(OC)cc12` [ZIMLOVISERTIB], the results for the % of inhibition in assay [4] and in assay [5] were -7.1% and -1.6%, respectively.

As usually defined, the IC50 is the midpoint of a concentration-inhibition curve. A lower IC50 goes with higher potency. With `CNCCN1CCC(c2cc(CN(C)C(=O)c3cccc(Oc4ccccc4)c3)ccn2)CC1`, the concentration for half-maximal inhibition (IC50) in assay [6] is above 10 µM.

On to `C=CC(=O)Nc1cc(-n2c(=O)ccc3cnc4ccc(-c5ccc(NS(C)(=O)=O)cc5)cc4c32)ccc1C`, for which the figures for the % of control in assay [7] (at 1 µM) and in assay [7] (at 10 µM) were 100% and 91%, respectively.

`COc1cc(Nc2nc(C)cc(-c3cnn4nc(OC)ccc34)n2)cc(C(F)(F)F)c1` displayed a % of control in assay [8] of 97%.

In [9], `Nc1cnc(N2CCc3cc(S(=O)(=O)Nc4c(F)cc(Cl)cc4F)cc(N4CCCC4=O)c32)nc1` [TP-020n] came in with a % of control of 98%.

For `COc1cc(N(C)c2ccnc3ccc(C(F)(F)F)cc23)cc(OC)c1OC`, the % binding in assay [10] is 97%.
